As usually defined, the ED50 is the dose at which the effect has come halfway, by size or by number of responders. Read a low ED50 as greater potency. The IC50 is the concentration at which inhibition is half-maximal. What is called Ki is a measure of affinity in units of concentration, obtained from inhibition or displacement.

The subject of assay [1] is Canis familiaris. In words: In vivo effect on urethral contractility (UP) of dog after intravenous administration. It is filed as functional, Canis lupus familiaris, Urethra.
The target of assay [2] is T1, Adrenergic receptor alpha-2 (Rattus norvegicus, UniProt P22086+P19328+P22909).
T1 sequence (P22086 whole entry): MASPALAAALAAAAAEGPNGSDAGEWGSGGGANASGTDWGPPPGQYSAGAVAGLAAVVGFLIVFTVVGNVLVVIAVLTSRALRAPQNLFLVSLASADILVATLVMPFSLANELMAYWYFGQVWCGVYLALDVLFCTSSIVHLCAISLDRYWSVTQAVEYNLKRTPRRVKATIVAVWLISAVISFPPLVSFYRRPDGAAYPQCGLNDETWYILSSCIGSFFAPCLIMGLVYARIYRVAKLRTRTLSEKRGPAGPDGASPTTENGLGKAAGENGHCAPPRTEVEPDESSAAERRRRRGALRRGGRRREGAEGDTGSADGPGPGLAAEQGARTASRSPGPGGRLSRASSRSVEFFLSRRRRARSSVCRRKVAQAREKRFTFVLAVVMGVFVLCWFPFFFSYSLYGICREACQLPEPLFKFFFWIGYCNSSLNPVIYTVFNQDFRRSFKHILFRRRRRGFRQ
T1 sequence (P19328 whole entry): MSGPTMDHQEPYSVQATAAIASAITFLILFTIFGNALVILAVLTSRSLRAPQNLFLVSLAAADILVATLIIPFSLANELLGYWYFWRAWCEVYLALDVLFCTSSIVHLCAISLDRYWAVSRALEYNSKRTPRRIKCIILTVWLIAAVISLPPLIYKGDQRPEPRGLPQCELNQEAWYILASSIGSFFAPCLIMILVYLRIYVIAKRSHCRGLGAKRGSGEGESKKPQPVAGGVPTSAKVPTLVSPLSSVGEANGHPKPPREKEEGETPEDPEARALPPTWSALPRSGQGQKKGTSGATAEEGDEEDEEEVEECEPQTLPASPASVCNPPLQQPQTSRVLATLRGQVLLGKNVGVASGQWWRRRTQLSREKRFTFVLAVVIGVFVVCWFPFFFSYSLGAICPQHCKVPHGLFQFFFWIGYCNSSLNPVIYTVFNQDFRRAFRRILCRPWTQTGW
T1 sequence (P22909 whole entry): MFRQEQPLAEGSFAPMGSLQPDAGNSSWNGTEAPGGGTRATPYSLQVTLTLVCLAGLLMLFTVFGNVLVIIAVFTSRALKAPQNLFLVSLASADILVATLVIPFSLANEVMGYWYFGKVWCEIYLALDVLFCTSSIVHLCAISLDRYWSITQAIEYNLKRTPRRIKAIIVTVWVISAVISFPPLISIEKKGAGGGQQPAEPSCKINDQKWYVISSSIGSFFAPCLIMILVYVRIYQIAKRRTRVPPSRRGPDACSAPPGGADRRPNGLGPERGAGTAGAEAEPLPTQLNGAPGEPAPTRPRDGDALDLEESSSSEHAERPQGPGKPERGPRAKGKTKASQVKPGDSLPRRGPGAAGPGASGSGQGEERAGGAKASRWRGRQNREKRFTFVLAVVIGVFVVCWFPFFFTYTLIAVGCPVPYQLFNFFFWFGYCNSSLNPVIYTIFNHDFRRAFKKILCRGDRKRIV
Description: Inhibitory concentration against Alpha-2 adrenergic receptor. It is filed as protein assay.

Assay [3] relates to Canis familiaris. Description: In vivo hypotensive effect(DBP) in dog after intravenous administration. It is filed as functional, Canis lupus familiaris.
Assay [4] deals with Alpha-1B adrenergic receptor (non-human animal clone). Description: The binding affinity towards Alpha-1B adrenergic receptor in the COS cell line.
In assay [5] the target is 5-hydroxytryptamine receptor 2A (Rattus norvegicus, UniProt P14842). In words: Inhibitory concentration against 5-hydroxytryptamine 2A receptor (Inactive at >1000 nM concentration).
Assay [6] deals with Canis familiaris. In words: Ratio of the in vivo effects(DBP/UP) in the dog model after intravenous administration. It is filed as functional, Canis lupus familiaris.
In assay [7] the target is T2, Alpha-1A adrenergic receptor (Rattus norvegicus, UniProt P43140).
T2 sequence (P43140 whole entry): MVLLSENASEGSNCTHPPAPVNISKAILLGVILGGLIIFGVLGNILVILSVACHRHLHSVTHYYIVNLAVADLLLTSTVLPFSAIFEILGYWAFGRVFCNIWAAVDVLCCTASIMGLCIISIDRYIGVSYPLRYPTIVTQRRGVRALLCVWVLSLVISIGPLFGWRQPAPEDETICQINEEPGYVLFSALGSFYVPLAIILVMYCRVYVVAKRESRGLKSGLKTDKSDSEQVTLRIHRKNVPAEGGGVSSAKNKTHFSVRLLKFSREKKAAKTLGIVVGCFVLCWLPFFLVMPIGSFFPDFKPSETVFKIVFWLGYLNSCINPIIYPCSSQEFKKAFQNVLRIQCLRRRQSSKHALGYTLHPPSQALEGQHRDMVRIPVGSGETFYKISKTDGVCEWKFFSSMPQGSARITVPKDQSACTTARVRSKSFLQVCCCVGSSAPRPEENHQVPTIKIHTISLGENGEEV
Description: The binding affinity towards Alpha-1A adrenergic receptor in the COS cell line. It counts as cell-based.

For a further assay, the target named is D(2) dopamine receptor (Rattus norvegicus, UniProt P61169). In words: Inhibitory concentration against Dopamine receptor D2 (Inactive at >1000 nM concentration).
Assay [8] addresses Alpha-1D adrenergic receptor (Rattus norvegicus). In words: The binding affinity towards Alpha-1D adrenergic receptor in the COS cell line.
The target in assay [9] is T3, Adrenergic receptor alpha-1 (Rattus norvegicus, UniProt P15823+P23944+P43140).
T3 sequence (P15823 whole entry): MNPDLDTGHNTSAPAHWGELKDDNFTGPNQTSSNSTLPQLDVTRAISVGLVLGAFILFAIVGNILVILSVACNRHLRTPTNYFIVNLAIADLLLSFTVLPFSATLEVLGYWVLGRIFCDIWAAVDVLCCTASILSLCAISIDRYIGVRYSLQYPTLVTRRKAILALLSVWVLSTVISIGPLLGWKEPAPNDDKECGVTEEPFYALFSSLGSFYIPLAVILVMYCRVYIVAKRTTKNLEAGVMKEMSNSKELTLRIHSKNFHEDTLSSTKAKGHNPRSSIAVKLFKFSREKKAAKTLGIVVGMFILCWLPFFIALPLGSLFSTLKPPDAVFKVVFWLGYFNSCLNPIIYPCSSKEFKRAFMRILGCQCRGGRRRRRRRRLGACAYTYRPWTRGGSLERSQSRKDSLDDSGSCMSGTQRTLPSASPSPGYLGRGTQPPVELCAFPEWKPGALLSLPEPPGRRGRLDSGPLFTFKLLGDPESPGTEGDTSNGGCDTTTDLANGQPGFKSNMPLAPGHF
T3 sequence (P23944 whole entry): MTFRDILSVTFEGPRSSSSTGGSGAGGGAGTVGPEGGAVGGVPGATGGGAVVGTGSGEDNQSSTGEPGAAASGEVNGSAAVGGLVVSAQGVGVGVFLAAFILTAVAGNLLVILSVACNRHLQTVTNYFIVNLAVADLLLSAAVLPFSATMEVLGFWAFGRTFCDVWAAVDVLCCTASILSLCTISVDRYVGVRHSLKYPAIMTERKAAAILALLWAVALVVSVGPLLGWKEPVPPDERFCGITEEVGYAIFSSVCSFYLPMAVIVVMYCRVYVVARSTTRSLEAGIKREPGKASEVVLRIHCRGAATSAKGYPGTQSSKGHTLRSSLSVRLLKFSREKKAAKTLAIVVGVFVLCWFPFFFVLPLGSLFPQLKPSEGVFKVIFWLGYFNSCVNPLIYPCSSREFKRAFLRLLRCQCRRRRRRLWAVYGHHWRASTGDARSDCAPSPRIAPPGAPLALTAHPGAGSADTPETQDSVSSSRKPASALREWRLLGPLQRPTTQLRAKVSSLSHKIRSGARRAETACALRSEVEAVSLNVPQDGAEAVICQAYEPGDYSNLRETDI
T3 sequence (P43140 whole entry): T2 sequence (P43140 whole entry)
Description: Inhibition of Alpha-1 adrenergic receptor in rat cortex membrane. It is filed as cell membranes.

Assay [10] has as its target T4, 5-hydroxytryptamine receptor 1A (Rattus norvegicus, UniProt P19327).
T4 sequence (P19327 whole entry): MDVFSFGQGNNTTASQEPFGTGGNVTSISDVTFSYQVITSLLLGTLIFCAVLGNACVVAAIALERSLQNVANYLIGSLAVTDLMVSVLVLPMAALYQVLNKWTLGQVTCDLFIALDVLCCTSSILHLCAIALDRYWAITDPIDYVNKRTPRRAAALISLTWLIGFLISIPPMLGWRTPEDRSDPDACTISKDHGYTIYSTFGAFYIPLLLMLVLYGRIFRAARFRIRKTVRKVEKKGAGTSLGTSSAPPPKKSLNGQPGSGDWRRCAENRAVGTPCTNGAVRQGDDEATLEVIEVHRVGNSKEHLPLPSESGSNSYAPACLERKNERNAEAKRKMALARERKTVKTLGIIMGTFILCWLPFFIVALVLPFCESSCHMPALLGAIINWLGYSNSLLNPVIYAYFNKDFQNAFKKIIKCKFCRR
Description: Inhibitory concentration against 5-hydroxytryptamine 1A receptor (Inactive at >1000 nM concentration).

Assay [11] concerns the target T4, 5-hydroxytryptamine receptor 1A. In words: Inhibition concentration against 5-hydroxytryptamine 1A receptor.

The structures appear in SMILES notation.

Sequence of 5-hydroxytryptamine receptor 2A (P14842 whole entry): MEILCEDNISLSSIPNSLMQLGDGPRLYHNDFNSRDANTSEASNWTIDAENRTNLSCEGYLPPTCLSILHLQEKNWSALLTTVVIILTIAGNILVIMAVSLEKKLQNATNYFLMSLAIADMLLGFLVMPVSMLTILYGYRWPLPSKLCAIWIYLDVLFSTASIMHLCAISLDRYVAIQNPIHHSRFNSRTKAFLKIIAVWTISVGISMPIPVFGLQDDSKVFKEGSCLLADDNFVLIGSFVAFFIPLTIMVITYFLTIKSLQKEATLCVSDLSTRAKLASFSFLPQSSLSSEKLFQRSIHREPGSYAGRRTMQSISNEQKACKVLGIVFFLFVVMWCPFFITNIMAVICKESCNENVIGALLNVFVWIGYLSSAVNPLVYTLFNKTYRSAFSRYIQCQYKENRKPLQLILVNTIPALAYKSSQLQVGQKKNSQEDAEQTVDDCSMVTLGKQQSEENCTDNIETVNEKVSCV
Sequence of D(2) dopamine receptor (P61169 whole entry): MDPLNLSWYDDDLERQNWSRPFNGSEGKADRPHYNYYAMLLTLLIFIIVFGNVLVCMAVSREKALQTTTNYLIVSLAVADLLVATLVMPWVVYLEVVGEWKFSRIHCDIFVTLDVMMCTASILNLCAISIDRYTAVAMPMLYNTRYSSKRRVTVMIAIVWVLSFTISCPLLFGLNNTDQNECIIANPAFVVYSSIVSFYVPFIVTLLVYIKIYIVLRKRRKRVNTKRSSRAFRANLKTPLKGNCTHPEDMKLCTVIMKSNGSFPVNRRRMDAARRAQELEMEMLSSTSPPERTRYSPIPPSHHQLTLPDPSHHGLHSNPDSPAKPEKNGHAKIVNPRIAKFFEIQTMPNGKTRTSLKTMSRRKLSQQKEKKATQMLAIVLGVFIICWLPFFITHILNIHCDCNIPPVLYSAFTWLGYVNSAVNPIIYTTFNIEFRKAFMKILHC

On to `COc1cc2nc(N3CCN(C(=O)CC(=O)c4ccccc4)CC3)nc(N)c2cc1OC`, for which, in the assay on Canis familiaris [1], it took a dose of 0.0106 mg/kg to reach the 50% effect level (ED50). Further, the 50% inhibitory concentration (IC50) in assay [2] was > 1000 nM; in [5] it was > 1000 nM; at D(2) dopamine receptor, > 1000 nM; in assay [9], 7.2 nM; in [10], > 1000 nM. The compound further yielded an ED25 in the assay on Canis familiaris [3] of 0.0081 mg/kg. In addition, the Ki was 5.43 nM in assay [4], 11 nM in assay [7] and 8.17 nM in assay [8]. For the same compound, in the assay on Canis familiaris [6], the DBP/UP ratio stood at 0.7.
`COc1cc2nc(N3CCN(C(=O)CC(c4ccccc4)c4ccccc4)CC3)nc(N)c2cc1OC` came in with a median effective dose (ED50) with Canis familiaris [1] of 0.031 mg/kg. Further, the half-maximal inhibitory concentration (IC50) is > 1000 nM in assay [2]; > 1000 nM in assay [5]; > 1000 nM against D(2) dopamine receptor; 1.4 nM in [9]; > 1000 nM in assay [10]. This compound also displayed an ED25 in the assay on Canis familiaris [3] of 0.023 mg/kg. This compound yielded a Ki in [7] of 1.48 nM.
For the compound `COc1cc2nc(N3CCN(C(=O)COc4c(OC)cccc4OC)CC3)nc(N)c2cc1OC`, the IC50 in assay [2] is > 1000 nM; in assay [5], > 1000 nM; at D(2) dopamine receptor, > 1000 nM; in assay [9], 6 nM; in [10], > 1000 nM. The affinity in assay [7], expressed as Ki, was 36.2 nM.
In the case of `COc1cc2nc(N3CCN(C(=O)C(C)Oc4c(OC)cccc4C(C)C)CC3)nc(N)c2cc1OC` (stereo not drawn), the concentration for half-maximal inhibition (IC50) was > 1000 nM in assay [2]; > 1000 nM in assay [5]; > 1000 nM against D(2) dopamine receptor; 123 nM in [9]; > 1000 nM in assay [10]. For the same compound, the inhibition constant (Ki) amounted to 14.7 nM in assay [4], 156 nM in assay [7] and 113 nM in assay [8].
On to `COc1cc2nc(N3CCN(C(=O)CCC(=O)c4ccccc4)CC3)nc(N)c2cc1OC`, for which, in the assay on Canis familiaris [1], the ED50 worked out at 0.035 mg/kg. For the same compound, the IC50 is > 1000 nM in assay [2]; > 1000 nM in assay [5]; > 1000 nM against D(2) dopamine receptor; 15 nM in assay [9]; > 1000 nM in assay [10]. Moreover, the ED25 in the assay with Canis familiaris [3] came out at 0.132 mg/kg. In [7], this compound had a Ki of 5.68 nM.
On to `COc1cc2nc(N3CCN(C(=O)COc4ccccc4OC)CC3)nc(N)c2cc1OC`, for which the IC50 was > 1000 nM in [2], > 1000 nM in assay [5], > 1000 nM on D(2) dopamine receptor and 170 nM in assay [11].
`COc1cc2nc(N3CCN(C(=O)COc4c(OC)cccc4C(C)C)CC3)nc(N)c2cc1OC` had an ED50 with Canis familiaris [1] of 0.065 mg/kg. For the same compound, the IC50 in assay [2] is > 1000 nM; in [5], > 1000 nM; against D(2) dopamine receptor, > 1000 nM; in assay [9], 4 nM; in assay [10], > 1000 nM. For the same compound, in the assay with Canis familiaris [3], the ED25 was determined as 0.183 mg/kg. For the same compound, affinity in [7] was put at a Ki of 7.5 nM.
For the compound `COc1cc2nc(N3CCN(C(c4ccccc4)c4ccccc4)CC3)nc(N)c2cc1OC`, the 50% inhibitory concentration (IC50) in assay [2] was > 1000 nM; in [5] it was > 1000 nM; against D(2) dopamine receptor it was > 1000 nM; in assay [9], 40 nM; in [10] it was > 1000 nM.
Turning to `COc1cc2nc(N(C)Cc3ccccc3)nc(N)c2cc1OC`, the IC50 was > 1000 nM in [2]; > 1000 nM in [5]; > 1000 nM at D(2) dopamine receptor; 70 nM in assay [9]; > 1000 nM in assay [10].

The record behind these values is ChEMBL document CHEMBL1132568, “Synthesis, pharmacological evaluation, and structure-activity relationship and quantitative structure-activity relationship studies on novel derivatives of 2,4-diamino-6,7-dimethoxyquinazoline alpha1-adrenoceptor antagonists” (J Med Chem, 1999).
